Laboratory results from US11229592B2, “Method for hair volume reduction” (Conopco, Inc., priority 2017, dated 2022).

How the values were obtained:
[1] = Shape and frizz control (volume) of straightened hair switches after high humidity, image analysis; details: After 1 hour at high humidity (30 C./80% RH), switches soaked 30 minutes in 1% aqueous solution, dried, compared to water control
Procedure: (§1) Dark brown European wavy hair switches of length 25 cm and weight 2 gms, were treated as follows:
Control: After initial washing, soaked for 30 minutes in water
Comparative Example A: After initial washing, soaked for 30 minutes in aqueous solution of 1% glycine
Example 1: soaked for 30 minutes in aqueous solution of 1% N-formyl glycine
(§2) At the end of the soaking period, the switches were left to dry at 20° C. and 50% RH. When dried, the switches were straightened with 5 passes of FHI irons (FHI Brands, 29003 Avenue Sherman Valencia, Calif. 91355 USA). The switches were then placed in a humidity chamber ˜30 C/80% RH for 1 hour and images were captured and analyzed.

[2] = Long lasting and durable volume reduction of treated hair switches after subsequent washing; details: switches from Example 1 subsequently washed, images captured; compared to control
Procedure: as §1, §2
The switches from the above example were subsequently washed and the images were captured. […] The corresponding benefits for glycine was only −10%.

NCC(=O)O [Comparative Example A, glycine]
% shape and frizz control benefit against control [1]: −6% | benefit over control (volume reduction) [2]: −10%

O=CNCC(=O)O [Example 1, N-formyl glycine]
% shape and frizz control benefit against control [1]: 30% | benefit over control (volume reduction) [2]: 32%
